Laboratory results as given in US20170145002A1, “DEUTERATED ISOXAZOLE DERIVATIVES AND THEIR USE AS METABOTROPIC GLUTAMATE RECEPTOR POTENTIATORS” (AstraZeneca AB, priority 2015, published 2017).

Tests used:
[1] = tested on: recombinant CYP enzymes (CYP1A2, 2A6, 2B6, 2C8, 2C9, 2C19, 2D6, 2E1, 3A4 and 3A5); assay: Turnover in recombinant CYP enzymes; format: in vitro ADME; conditions: 0.1 μM and 1 μM
Protocol: To identify the enzymes responsible for P450 mediated metabolism, the turnover of Compound A was tested in recombinant CYP enzymes (CYP1A2, 2A6, 2B6, 2C8, 2C9, 2C19, 2D6, 2E1, 3A4 and 3A5) at 0.1 μM and 1 μM.

[2] = Compound turnover and metabolite formation in human hepatocytes with or without CYP3A inhibitor ketoconazole; format: in vitro ADME
Protocol: Approximately 10% of Compound A disappeared in 60 minutes.
Since Compound D was predominantly metabolized by CYP3A4, further experiments were conducted with Compound A in human hepatocytes in the presence and absence of CYP3A inhibitor ketoconazole. […] Parent disappearance data indicated a CYP3A involvement in the metabolism of Compound A (FIG. 1); however, the very low intrinsic clearance values make it difficult to provide an accurate determination of a percentage involvement of CYP3A via a substrate depletion method as described above.
Within the same experiments, the formation of Compound A metabolites in the absence of ketoconazole was observed (FIG. 2).

[3] = Pharmacokinetics after intravenous bolus in rats; format: in vivo; conditions: male Wistar rat, nominal dose 1.0 mg/kg, plasma
Protocol: The animals were single dosed via intravenous (IV) bolus to tail vein over approximately 5 seconds. The animals were not fasted prior to dosing. The single dose formulation samples were collected from middle of formulation and stored at 5±3° C. for potential analysis. Animals were evaluated during in-life phase.
The blood samples were centrifuged at 2000 g for 5 minutes at 4° C. to obtain plasma. Plasma samples were stored in polypropylene tubes, quickly frozen in ice box and kept at −80° C. Plasma samples were deprotainated by solvent precipitation. Concentration of Compounds A and D in plasma and tissue samples were analyzed using a LC-MS/MS method. WinNonlin version 6.2 will be used for pharmacokinetic parameters calculations. AUC was calculated using log trapezoidal method.

[4] = Metabolite identification and relative abundance in human hepatocytes; format: in vitro ADME; conditions: Compound A 10 μM in human hepatocytes (1 million cells/mL), 4 hours, 37° C.
Protocol: Compound A was incubated at 10 μM in human hepatocytes (1 million cells/mL) for 4 hours at 37° C. under air with 5% CO2. The reaction was stopped by adding acetonitrile at a ratio of 3:1. Following centrifugation the supernatant was transferred to a clean tube and dried under a stream of N2. Following reconstitution in 30% acetonitrile, aliquots of the sample were injected onto a LC/UV/MS system for metabolite identification and profiling. This allowed assessment of the metabolites formed and an indication of their relative abundance (via UV, Table 6).

[5] = biological target: T1, human metabotropic glutamate receptor 2 (mGluR2) (Homo sapiens, UniProt Q14416); assay: Binding Assay (mGluR2 GTPγ35S assay); format: biochemical; conditions: membranes from CHO-K1 cells expressing human mGluR2; L-glutamate and GTPγ35S stimulation, 45 minutes, SPA
T1 construct: expressed in transfected cells; host or cells: CHO-K1
Protocol: This assay was developed to measure the agonist and/or positive allosteric modulator (PAM) activity of compounds at the human metabotropic glutamate receptor 2 (mGluR2).
Crude membranes were prepared from CHO-K1 cells expressing human mGluR2 and stored at −80° C. in aliquots in 2 mg/mL concentrations using a previously described method Fenge et al., Cytotechnology 38 (2002). Assay buffer is defined as 0.22 μM filtered water containing 50 mM HEPES (Teknova), 10 mM MgCl2 (Teknova), 50 mM NaCl (Teknova), 100 μM DTT (Sigma 43819), pH 7.4. Membrane solution containing membranes, beads, and GDP diluted in assay buffer was prepared in excess and incubated for 15 to 30 minutes at room temperature (25° C.). Membrane solution was prepared in a per-well ratio of 1.8 μg membranes, 225 μg PVT-WGA SPA beads (Perkin Elmer RPNQ0001), 3.3 μM GDP (Sigma G7127) in assay buffer to a final per-well volume of 180 μl. Stimulation buffer was prepared by diluting L-glutamate to 10 μM and GTPγ^35S to 1 nM in assay buffer. […] 20 μL of stimulation buffer was then added to individual wells, plates were sealed, incubated on a shaker at room temperature for 45 minutes, centrifuged at 1000 RPM for 5 minutes and then assessed using a ^35S SPA Program (1 minute read time. Low Background Paralux) on a MicroBeta instrument (PerkinElmer, Waltham, Massachusetts).

hERG ion channel = hERG ion channel (Homo sapiens, UniProt Q12809); conditions: as disclosed in WO 2009/148403; cited from earlier work
mGluR2 = mGluR2 (Homo sapiens, UniProt Q14416); conditions: as disclosed in WO 2009/148403; cited from earlier work
[6] = as disclosed in WO 2009/148403; cited from earlier work

T1 sequence (Q14416 19-872): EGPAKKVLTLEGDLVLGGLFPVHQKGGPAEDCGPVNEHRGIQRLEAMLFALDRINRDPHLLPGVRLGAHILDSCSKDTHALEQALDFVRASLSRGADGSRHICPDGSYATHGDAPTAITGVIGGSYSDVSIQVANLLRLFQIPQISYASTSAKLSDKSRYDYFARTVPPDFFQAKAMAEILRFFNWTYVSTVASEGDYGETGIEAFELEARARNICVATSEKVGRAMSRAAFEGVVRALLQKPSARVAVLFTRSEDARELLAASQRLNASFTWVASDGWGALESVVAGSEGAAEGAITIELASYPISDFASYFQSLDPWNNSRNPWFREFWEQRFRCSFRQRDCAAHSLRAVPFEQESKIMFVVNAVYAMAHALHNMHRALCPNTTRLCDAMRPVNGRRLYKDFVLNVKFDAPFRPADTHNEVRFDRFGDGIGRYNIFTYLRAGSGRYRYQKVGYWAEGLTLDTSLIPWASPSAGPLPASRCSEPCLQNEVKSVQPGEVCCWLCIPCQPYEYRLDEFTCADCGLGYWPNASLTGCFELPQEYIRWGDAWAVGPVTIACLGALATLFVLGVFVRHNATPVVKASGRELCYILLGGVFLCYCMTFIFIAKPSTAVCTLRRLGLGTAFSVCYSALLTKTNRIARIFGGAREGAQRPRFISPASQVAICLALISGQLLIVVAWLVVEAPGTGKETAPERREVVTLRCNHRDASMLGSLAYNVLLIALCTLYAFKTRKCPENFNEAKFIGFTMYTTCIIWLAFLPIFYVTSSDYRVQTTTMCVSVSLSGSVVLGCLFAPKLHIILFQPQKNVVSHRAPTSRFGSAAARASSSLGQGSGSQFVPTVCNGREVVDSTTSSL
Chain of mGluR2 (Q14416 19-872): as above
Chain of hERG ion channel (Q12809 whole entry): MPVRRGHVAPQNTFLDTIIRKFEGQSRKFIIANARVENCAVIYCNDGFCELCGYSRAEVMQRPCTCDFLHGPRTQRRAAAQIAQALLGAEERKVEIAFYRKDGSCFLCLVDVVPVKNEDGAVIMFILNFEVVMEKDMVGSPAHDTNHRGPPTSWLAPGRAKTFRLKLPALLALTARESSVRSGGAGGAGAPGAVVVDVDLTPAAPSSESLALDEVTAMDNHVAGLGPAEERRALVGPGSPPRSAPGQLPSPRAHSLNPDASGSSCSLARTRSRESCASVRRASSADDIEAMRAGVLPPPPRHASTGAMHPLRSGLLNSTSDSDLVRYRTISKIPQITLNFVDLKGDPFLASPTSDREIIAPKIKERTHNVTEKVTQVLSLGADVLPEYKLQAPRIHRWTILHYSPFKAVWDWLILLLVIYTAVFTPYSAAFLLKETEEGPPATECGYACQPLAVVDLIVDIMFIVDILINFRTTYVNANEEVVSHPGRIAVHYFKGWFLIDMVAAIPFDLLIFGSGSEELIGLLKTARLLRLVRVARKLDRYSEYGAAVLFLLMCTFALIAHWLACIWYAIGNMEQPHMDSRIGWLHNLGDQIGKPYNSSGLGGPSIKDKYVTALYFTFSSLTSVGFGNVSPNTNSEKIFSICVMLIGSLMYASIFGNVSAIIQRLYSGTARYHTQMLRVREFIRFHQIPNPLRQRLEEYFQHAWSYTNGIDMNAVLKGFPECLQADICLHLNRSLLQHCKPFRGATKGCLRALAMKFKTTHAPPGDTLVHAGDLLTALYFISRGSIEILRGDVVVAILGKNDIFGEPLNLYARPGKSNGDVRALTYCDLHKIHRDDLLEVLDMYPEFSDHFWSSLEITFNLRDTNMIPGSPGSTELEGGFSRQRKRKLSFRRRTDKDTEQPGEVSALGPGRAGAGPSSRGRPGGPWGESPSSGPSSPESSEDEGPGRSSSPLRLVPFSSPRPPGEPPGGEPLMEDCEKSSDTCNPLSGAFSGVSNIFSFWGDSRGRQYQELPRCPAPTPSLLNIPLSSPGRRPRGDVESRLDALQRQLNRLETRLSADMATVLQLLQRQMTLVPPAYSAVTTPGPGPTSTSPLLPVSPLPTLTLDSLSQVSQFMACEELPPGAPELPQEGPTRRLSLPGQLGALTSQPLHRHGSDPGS

[2H]C1([2H])OC([2H])([2H])C([2H])([2H])N(C(=O)c2cc(-c3cc(Cl)c4c(c3)CN([C@@H](C)C3CC3)C4=O)on2)C1([2H])[2H] [Compound A, (S)-7-chloro-2-(1-cyclopropylethyl)-5-(3-(morpholine-4-carbonyl-2,2,3,3,5,5,6,6-d8)isoxazol-5-yl)isoindolin-1-one]
Turnover in recombinant CYP enzymes [1]: No significant turnover was observed | Turnover in human hepatocytes [2]: very low turnover | Parent compound disappeared ([2]; 60 minutes, absence of ketoconazole): Approximately 10% | Turnover in presence of CYP3A inhibitor ([2]; with ketoconazole): No turnover was observed | AUC [3]: 1.29 µM·h | clearance [3]: 31.1 mL/min/kg | half-life [3]: 45.7 min | Relative UV abundance (%) Human [4]: 94.2% | EC50 [5]: 170 ± 9 nM

C[C@@H](C1CC1)N1Cc2cc(-c3cc(C(=O)N4CCOCC4)no3)cc(Cl)c2C1=O [Compound D, (S)-7-chloro-2-(1-cyclopropylethyl)-5-(3-(morpholine-4-carbonyl)isoxazol-5-yl)isoindolin-1-one, reference compound]
Capacity to activate the hERG ion channel (hERG ion channel): low capacity to activate the hERG ion channel | Turnover in recombinant CYP enzymes [1]: predominantly metabolised by CYP3A4 | mGluR2 modulator activity (mGluR2): highly active | AUC [3]: 0.915 µM·h | clearance [3]: 44.3 mL/min/kg | half-life [3]: 48.8 min | EC50 [5]: 121 ± 56 nM | Solubility [6]: favorable solubility
